Reference: patent US20230079819A1, “COMPOUNDS AND USES THEREOF” (Foghorn Therapeutics Inc., priority 2019, published 2023)

Experiments:
BRG-1 = molecular target: T1, BRG-1 (Homo sapiens, UniProt P51532); experiment: ATPase catalytic activity of BRG-1, ADP-Glo in vitro biochemical assay; conditions: ATPase catalytic activity, 30 nM BRG-1, 400 μM ATP, read-out: BRG1 IP50
T1 construct: made in house; host or cells: High Five insect cells

BRM = molecular target: T2, BRM (Homo sapiens, UniProt P51531); experiment: ATPase catalytic activity of BRM, ADP-Glo in vitro biochemical assay; conditions: ATPase catalytic activity, 30 nM BRM, 400 μM ATP, read-out: BRM IP50
T2 construct: made in house; host or cells: High Five insect cells
T2 sequence (P51531 whole entry): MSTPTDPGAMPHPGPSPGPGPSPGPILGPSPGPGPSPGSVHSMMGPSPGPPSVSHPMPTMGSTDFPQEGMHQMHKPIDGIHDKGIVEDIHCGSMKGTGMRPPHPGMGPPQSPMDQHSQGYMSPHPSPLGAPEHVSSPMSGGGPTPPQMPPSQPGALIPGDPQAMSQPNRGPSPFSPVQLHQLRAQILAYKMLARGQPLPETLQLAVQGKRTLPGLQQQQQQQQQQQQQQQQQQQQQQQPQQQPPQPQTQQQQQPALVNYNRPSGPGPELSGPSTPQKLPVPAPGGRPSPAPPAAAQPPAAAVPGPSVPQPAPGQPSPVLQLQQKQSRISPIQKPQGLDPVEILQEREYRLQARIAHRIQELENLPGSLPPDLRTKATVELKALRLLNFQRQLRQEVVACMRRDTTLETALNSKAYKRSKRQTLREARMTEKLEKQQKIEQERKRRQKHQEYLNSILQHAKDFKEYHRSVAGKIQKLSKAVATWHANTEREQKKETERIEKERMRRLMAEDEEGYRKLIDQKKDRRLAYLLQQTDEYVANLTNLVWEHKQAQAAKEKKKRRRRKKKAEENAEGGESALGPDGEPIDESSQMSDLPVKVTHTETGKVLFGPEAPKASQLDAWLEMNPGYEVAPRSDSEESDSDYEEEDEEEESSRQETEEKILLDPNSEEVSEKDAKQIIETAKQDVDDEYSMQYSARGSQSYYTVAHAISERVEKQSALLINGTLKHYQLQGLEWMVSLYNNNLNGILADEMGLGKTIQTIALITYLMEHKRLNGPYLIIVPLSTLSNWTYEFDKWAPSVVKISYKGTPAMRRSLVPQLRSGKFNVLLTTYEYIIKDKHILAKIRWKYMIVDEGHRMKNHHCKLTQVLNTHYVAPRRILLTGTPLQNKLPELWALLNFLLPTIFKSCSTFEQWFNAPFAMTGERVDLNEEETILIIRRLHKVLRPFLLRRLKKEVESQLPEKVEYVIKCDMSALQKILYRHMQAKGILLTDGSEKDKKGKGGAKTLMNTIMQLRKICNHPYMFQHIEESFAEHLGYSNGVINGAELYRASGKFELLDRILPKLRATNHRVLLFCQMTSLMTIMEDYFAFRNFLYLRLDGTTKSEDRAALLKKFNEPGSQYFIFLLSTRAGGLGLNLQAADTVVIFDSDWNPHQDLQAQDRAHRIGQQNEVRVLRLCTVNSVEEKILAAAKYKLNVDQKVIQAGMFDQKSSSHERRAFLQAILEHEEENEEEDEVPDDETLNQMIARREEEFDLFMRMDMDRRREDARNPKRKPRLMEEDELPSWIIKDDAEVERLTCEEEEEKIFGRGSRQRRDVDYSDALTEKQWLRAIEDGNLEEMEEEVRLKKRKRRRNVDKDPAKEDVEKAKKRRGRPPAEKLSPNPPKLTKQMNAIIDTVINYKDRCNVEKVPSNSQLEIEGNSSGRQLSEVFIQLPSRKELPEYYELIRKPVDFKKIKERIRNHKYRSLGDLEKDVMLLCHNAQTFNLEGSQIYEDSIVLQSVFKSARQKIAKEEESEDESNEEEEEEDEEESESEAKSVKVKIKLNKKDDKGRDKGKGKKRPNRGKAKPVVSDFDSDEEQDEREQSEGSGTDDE

T1 sequence (P51532 whole entry): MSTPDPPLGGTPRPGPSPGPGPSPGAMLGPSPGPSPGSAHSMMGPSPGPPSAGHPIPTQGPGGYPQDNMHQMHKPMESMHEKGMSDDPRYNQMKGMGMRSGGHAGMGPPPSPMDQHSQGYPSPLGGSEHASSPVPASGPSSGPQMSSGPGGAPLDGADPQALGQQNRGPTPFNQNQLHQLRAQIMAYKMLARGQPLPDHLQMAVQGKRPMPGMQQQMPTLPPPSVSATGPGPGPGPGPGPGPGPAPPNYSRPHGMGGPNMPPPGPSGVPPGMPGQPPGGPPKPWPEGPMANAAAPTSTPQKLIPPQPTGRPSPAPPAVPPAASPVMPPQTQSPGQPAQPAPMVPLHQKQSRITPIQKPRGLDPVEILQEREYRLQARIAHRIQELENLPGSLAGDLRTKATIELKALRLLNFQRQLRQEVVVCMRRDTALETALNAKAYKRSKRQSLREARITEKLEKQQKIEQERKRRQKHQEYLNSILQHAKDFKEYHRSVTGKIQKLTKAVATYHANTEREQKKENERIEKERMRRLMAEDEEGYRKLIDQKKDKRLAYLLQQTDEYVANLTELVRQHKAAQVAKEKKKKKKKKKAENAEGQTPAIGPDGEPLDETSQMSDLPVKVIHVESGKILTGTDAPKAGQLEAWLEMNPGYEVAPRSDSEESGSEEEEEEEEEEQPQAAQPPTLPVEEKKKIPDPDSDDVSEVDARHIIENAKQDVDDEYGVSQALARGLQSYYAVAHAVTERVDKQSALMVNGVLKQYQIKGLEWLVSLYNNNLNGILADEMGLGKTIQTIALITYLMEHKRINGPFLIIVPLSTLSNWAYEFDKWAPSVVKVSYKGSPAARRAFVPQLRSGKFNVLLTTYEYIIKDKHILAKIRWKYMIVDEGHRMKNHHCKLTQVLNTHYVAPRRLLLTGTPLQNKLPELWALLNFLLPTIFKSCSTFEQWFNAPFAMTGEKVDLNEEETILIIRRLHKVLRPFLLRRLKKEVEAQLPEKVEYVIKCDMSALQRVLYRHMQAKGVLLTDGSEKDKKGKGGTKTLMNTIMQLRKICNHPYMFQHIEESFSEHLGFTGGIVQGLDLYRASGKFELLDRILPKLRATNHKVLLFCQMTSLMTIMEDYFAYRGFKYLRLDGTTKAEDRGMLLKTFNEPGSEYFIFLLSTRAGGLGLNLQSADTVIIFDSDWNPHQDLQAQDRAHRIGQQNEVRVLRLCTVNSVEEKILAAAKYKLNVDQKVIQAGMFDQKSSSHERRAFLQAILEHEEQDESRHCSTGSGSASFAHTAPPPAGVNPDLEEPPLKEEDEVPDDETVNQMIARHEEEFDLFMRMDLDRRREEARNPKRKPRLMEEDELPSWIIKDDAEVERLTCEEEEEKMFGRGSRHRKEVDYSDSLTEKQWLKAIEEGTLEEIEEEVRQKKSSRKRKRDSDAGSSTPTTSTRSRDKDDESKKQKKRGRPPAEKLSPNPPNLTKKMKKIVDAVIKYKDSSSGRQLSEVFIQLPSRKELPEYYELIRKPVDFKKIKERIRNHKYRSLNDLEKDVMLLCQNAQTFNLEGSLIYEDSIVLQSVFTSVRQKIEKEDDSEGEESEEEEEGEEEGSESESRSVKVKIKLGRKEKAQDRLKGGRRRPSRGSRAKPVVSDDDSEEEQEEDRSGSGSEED

IC50 (BRG-1)	IC50 (BRM)	SMILES
> 0.1 µM	> 0.01 µM	CC(C)(C)n1ccc(C(=O)NCC(=O)Nc2nc(-c3cccc(N4CCn5ccnc5C4)n3)cs2)c1 [Compound 657]
> 0.01 µM	> 0.01 µM	CN1CCc2cc(-c3csc(NC(=O)CNC(=O)c4ccn(S(C)(=O)=O)c4)n3)ccc21 [Compound 658]
> 0.1 µM	> 0.01 µM	CC(C)(C)n1ccc(C(=O)NCC(=O)Nc2nc(-c3cccc(N4CC[C@H]5OCCC[C@@H]5C4)n3)cs2)c1 [Compound 659]
> 0.1 µM	> 0.1 µM	CC(C)(C)n1ccc(C(=O)NCC(=O)Nc2nc(-c3cccc(N4CC5CN(c6ccncc6)CC5C4)n3)cs2)c1 (stereo not drawn) [Compound 660]
> 0.1 µM	> 0.1 µM	CC(C)(C)n1ccc(C(=O)NCC(=O)Nc2nc(-c3cccc(N4C[C@@H]5OCC(F)(F)[C@@H]5C4)n3)cs2)c1 [Compound 661]
< 0.01 µM	< 0.01 µM	CC(C)(C)n1ccc(C(=O)NCC(=O)Nc2nc(-c3cccc(N4CC[C@H]5COC[C@@H]5C4)n3)cs2)c1 [Compound 662]
> 0.1 µM	> 0.01 µM	CC(C)(C)n1ccc(C(=O)NCC(=O)Nc2nc(-c3cccc(N4C[C@@H](F)[C@@H](F)C4)n3)cs2)c1 [Compound 664]
> 0.1 µM	> 0.1 µM	CC(C)(C)n1ccc(C(=O)NCC(=O)Nc2nc(-c3cccc(N4CCN(S(C)(=O)=O)CC4)n3)cs2)c1 [Compound 665]
> 0.1 µM	> 0.01 µM	CC(C)(C)n1ccc(C(=O)NCC(=O)Nc2nc(-c3cccc(N4CCC(S(C)(=O)=O)C4)n3)cs2)c1 (stereo not drawn) [Compound 667]
> 0.01 µM	> 0.01 µM	CC(C)(C)n1ccc(C(=O)NCC(=O)Nc2nc(-c3cccc(N4CCCC5(CCO5)C4)n3)cs2)c1 (stereo not drawn) [Compound 668]
> 0.1 µM	> 0.1 µM	CC(C)(C)n1ccc(C(=O)NCC(=O)Nc2nc(-c3cccc(N4CCCC5(CCCO5)C4)n3)cs2)c1 (stereo not drawn) [Compound 669]
> 0.1 µM	> 0.01 µM	CN(C)[C@@H]1CCN(c2cccc(-c3csc(NC(=O)CNC(=O)c4ccn(C(C)(C)C)c4)n3)n2)C1 [Compound 670]
> 0.1 µM	> 0.01 µM	CC(C)(C)n1ccc(C(=O)NCC(=O)Nc2nc(-c3cccc(N4CCC5(CCOC5)C4)n3)cs2)c1 (stereo not drawn) [Compound 671]
> 0.01 µM	> 0.01 µM	CC(C)(C)n1ccc(C(=O)NCC(=O)Nc2nc(-c3cccc(N4CCC(C#N)C4)n3)cs2)c1 (stereo not drawn) [Compound 672]
> 0.01 µM	> 0.01 µM	C[C@@H]1CCN(c2cccc(-c3csc(NC(=O)CNC(=O)c4ccn(C(C)(C)C)c4)n3)n2)C1 [Compound 673]
> 0.01 µM	> 0.01 µM	CC(C)(C)n1ccc(C(=O)NCC(=O)Nc2nc(-c3cccc(N4C[C@H]5COC[C@H]5C4)n3)cs2)c1 [Compound 674]
> 0.01 µM	> 0.01 µM	CC(C)(C)n1ccc(C(=O)NCC(=O)Nc2nc(-c3cccc(N4CCC(F)C4)n3)cs2)c1 (stereo not drawn) [Compound 675]
> 0.01 µM	> 0.01 µM	CC(C)(C)n1ccc(C(=O)NCC(=O)Nc2nc(-c3cccc(N4CCC5OCCC5C4)n3)cs2)c1 (stereo not drawn) [Compound 676]
> 0.1 µM	> 0.1 µM	CC(C)(C)n1ccc(C(=O)NCC(=O)Nc2nc(-c3cccc(N4C[C@@H](F)[C@H](F)C4)n3)cs2)c1 [Compound 677]

IC50 (BRG-1)	IC50 (BRM)	SMILES
> 0.1 µM	> 0.1 µM	Cc1cc(N2CCN(c3cccc(-c4csc(NC(=O)CNC(=O)c5ccn(C(C)(C)C)c5)n4)n3)CC2)ccn1 [Compound 678]
> 0.01 µM	> 0.01 µM	CC(C)(C)n1ccc(C(=O)NCC(=O)Nc2nc(-c3cccc(N4CCC(F)(F)C4)n3)cs2)c1 [Compound 679]
> 0.1 µM	> 0.01 µM	CN(C)C1CCCN(c2cccc(-c3csc(NC(=O)CNC(=O)c4ccn(C(C)(C)C)c4)n3)n2)C1 (stereo not drawn) [Compound 680]
> 0.01 µM	< 0.01 µM	CC(C)(C)n1ccc(C(=O)NCC(=O)Nc2nc(-c3cccc(N4CCc5cnccc5C4)n3)cs2)c1 [Compound 681]
> 0.1 µM	> 0.1 µM	CC(C)(C)n1ccc(C(=O)NCC(=O)Nc2nc(-c3cccc(N4CCC(n5cncn5)CC4)n3)cs2)c1 [Compound 682]
> 0.01 µM	> 0.01 µM	CS(=O)(=O)n1ccc(C(=O)NCC(=O)Nc2nc(-c3cccc(N4CC[C@@H](C(F)F)C4)n3)cs2)c1 [Compound 683]
> 0.01 µM	> 0.01 µM	COCC1CN(c2cccc(-c3csc(NC(=O)CNC(=O)c4ccn(C(C)(C)C)c4)n3)n2)CCO1 (stereo not drawn) [Compound 684]
> 0.1 µM	> 0.01 µM	C[C@@H]1CN(c2cncc(-c3csc(NC(=O)CNC(=O)c4ccn(C(C)(C)C)c4)n3)c2)C[C@H](C)O1 [Compound 685]
> 0.01 µM	> 0.01 µM	C[C@@H]1CN(c2cncc(-c3csc(NC(=O)CNC(=O)c4ccn(S(C)(=O)=O)c4)n3)c2)C[C@H](C)O1 [Compound 686]
> 0.1 µM	> 0.01 µM	CC(C)(C)n1ccc(C(=O)NCC(=O)Nc2nc(-c3cccc(N4CC(F)C4)n3)cs2)c1 [Compound 687]
> 0.01 µM	> 0.01 µM	COC[C@H](NC(=O)c1ccn(S(C)(=O)=O)c1)C(=O)Nc1nc(-c2ccc3c(c2)CCO3)cs1 [Compound 688]
> 0.1 µM	> 0.1 µM	CC(C)(C)n1ccc(C(=O)NCC(=O)Nc2nc(-c3cccc(N4C[C@@H]5[C@@H](CF)[C@@H]5C4)n3)cs2)c1 [Compound 689]
> 0.1 µM	> 0.01 µM	CC(C)(C)n1ccc(C(=O)NCC(=O)Nc2nc(-c3cccc(N4CC[C@H](F)C4)n3)cs2)c1 [Compound 690]
> 0.1 µM	> 0.01 µM	COC[C@H](NC(=O)c1ccn(S(C)(=O)=O)c1)C(=O)Nc1nc(-c2cccc(N3CC[C@@H](C(F)F)C3)n2)cs1 [Compound 691]
> 0.01 µM	> 0.01 µM	CC(C)(C)n1ccc(C(=O)NCC(=O)Nc2nc(-c3cccc(N4CCn5ncnc5C4)n3)cs2)c1 [Compound 692]
> 0.01 µM	< 0.01 µM	C[C@@H]1CN(c2cncc(-c3csc(NC(=O)CNC(=O)c4ccn(S(C)(=O)=O)c4)n3)n2)C[C@H](C)O1 [Compound 693]
< 0.01 µM	< 0.01 µM	COC[C@H](NC(=O)c1ccn(S(C)(=O)=O)c1)C(=O)Nc1nc(-c2cc(F)c3c(c2)OCO3)cs1 [Compound 695]
> 0.1 µM	> 0.1 µM	Cn1ccc(C2CCN(c3cccc(-c4csc(NC(=O)CNC(=O)c5ccn(C(C)(C)C)c5)n4)n3)CC2)n1 [Compound 696]
> 0.01 µM	> 0.01 µM	CC(C)(C)n1ccc(C(=O)NCC(=O)Nc2nc(-c3cccc(N4CCCC(OC(F)F)C4)n3)cs2)c1 (stereo not drawn) [Compound 697]

IC50 (BRG-1)	IC50 (BRM)	SMILES
> 0.01 µM	> 0.01 µM	CS(=O)(=O)n1ccc(C(=O)NCC(=O)Nc2nc(-c3cccc(N4CC[C@H](C(F)F)C4)n3)cs2)c1 [Compound 698]
> 0.01 µM	> 0.01 µM	COC[C@H](NC(=O)c1ccn(S(C)(=O)=O)c1)C(=O)Nc1nc(-c2cccc(N3CC[C@H](C(F)F)C3)n2)cs1 [Compound 699]
> 0.01 µM	< 0.01 µM	COc1cc(F)cc(-c2csc(NC(=O)CNC(=O)c3ccn(S(C)(=O)=O)c3)n2)c1 [Compound 701]
> 0.01 µM	> 0.01 µM	Cc1nc(C2CCCN(c3cccc(-c4csc(NC(=O)CNC(=O)c5ccn(C(C)(C)C)c5)n4)n3)C2)no1 (stereo not drawn) [Compound 704]
> 0.01 µM	> 0.01 µM	C[C@@H]1CN(c2cncc(-c3csc(NC(=O)CNC(=O)c4ccn(C(C)(C)C)c4)n3)n2)C[C@H](C)O1 [Compound 705]
> 0.1 µM	> 0.1 µM	Cn1cc(N2CCN(c3cccc(-c4csc(NC(=O)CNC(=O)c5ccn(C(C)(C)C)c5)n4)n3)CC2)cn1 [Compound 706]
> 0.01 µM	> 0.01 µM	COC[C@H](NC(=O)c1ccn(S(C)(=O)=O)c1)C(=O)Nc1nc(-c2cncc(N3C[C@@H](C)O[C@@H](C)C3)n2)cs1 [Compound 707]
< 0.01 µM	< 0.01 µM	COC[C@H](NC(=O)c1ccn(S(C)(=O)=O)c1)C(=O)Nc1nc(-c2cc(F)c3c(c2)CCO3)cs1 [Compound 708]
> 0.01 µM	> 0.01 µM	CC(C)(C)n1ccc(C(=O)NCC(=O)Nc2nc(-c3cccc(N4CCCC(n5cncn5)C4)n3)cs2)c1 (stereo not drawn) [Compound 709]
> 0.01 µM	> 0.01 µM	COC[C@H](NC(=O)c1ccn(S(C)(=O)=O)c1)C(=O)Nc1nc(-c2cccc(OC)c2F)cs1 [Compound 710]
> 0.01 µM	> 0.01 µM	COc1cccc(-c2csc(NC(=O)CNC(=O)c3ccn(S(C)(=O)=O)c3)n2)c1F [Compound 711]
> 0.01 µM	> 0.01 µM	COC[C@H](NC(=O)c1ccn(S(C)(=O)=O)c1)C(=O)Nc1nc(-c2cccc(C#N)c2)cs1 [Compound 712]
< 0.01 µM	< 0.01 µM	COC[C@H](NC(=O)c1ccn(S(C)(=O)=O)c1)C(=O)Nc1nc(-c2cc(F)c3c(c2)N(C)CC3)cs1 [Compound 713]
> 0.01 µM	> 0.01 µM	COC[C@H](NC(=O)c1ccn(S(C)(=O)=O)c1)C(=O)Nc1nc(-c2cc(F)cc(C#N)c2)cs1 [Compound 714]
> 0.01 µM	> 0.01 µM	CS(=O)(=O)n1ccc(C(=O)NCC(=O)Nc2nc(-c3cc(F)cc(C#N)c3)cs2)c1 [Compound 715]
> 0.01 µM	> 0.01 µM	COC[C@H](NC(=O)c1ccn(S(C)(=O)=O)c1)C(=O)Nc1nc(-c2ccc(F)c(OC)c2)cs1 [Compound 716]
> 0.01 µM	> 0.01 µM	CS(=O)(=O)n1ccc(C(=O)NCC(=O)Nc2nc(-c3cccc([C@H]4[C@@H]5COC[C@@H]54)c3)cs2)c1 [Compound 717]
> 0.01 µM	> 0.01 µM	COc1cc(-c2csc(NC(=O)CNC(=O)c3ccn(S(C)(=O)=O)c3)n2)ccc1F [Compound 718]
< 0.01 µM	< 0.01 µM	CS(=O)(=O)n1ccc(C(=O)NCC(=O)Nc2nc(-c3cc(F)c4c(c3)C(F)(F)CC4)cs2)c1 [Compound 719]
